Eleven compounds from US20260242352A1, “INHIBITION OF SHIP1 AS A THERAPEUTIC STRATEGY FOR THE TREATMENT OF ALZHEIMER'S DISEASE” (The Trustees of Indiana University, priority 2022, published 2026) can be followed below.

The test system of one data set is BV2 cells. The data set is described as follows: pHrodo-myelin phagocytosis/cell health assay, BV2 cells. The format is cell-based. To be noted: Mus musculus, BV-2, compound 48 hrs, 60 μM to 3 nM, (n) in cell. The protocol: pHrodo-myelin phagocytosis/cell health assay with microglial cells. This 384-well plate high content imaging assay was developed to quantify phagocytosis and cell health simultaneously using either BV2 or HMC3 immortalized microglial cell lines or primary microglia isolated from mouse brain. Cells were cultured in DMEM GlutaMax media (ThermoFisher) containing 10% FBS and Pen-Strep in 37° C. 5% CO2 incubator.
Day 1: Cells were plated (Corning Falcon 384 well Optilux Black and clear bottom plates for imaging) with BV2 at 400 cells/45 μl/well, HMC3 at 600 cells/45 μl/well, or primary at 2000 cell/45 μl/well.
Day 2: Cells were treated with 10× serially diluted compounds in a dose range of 60 μM to 3 nM for 48 hrs at 37° C.
Day 3: Cells were seeded with pHrodo-myelin (for total 20 hrs) 24 hrs after starting compound treatment. The pHrodo-myelin stocks were at 1 mg/ml (protein equivalent) stored in −20° C. or −80° C. freezer. Stocks were thawed and diluted with culture media into 10× seeding solution (50 μg/ml) and added 5 μl/well to 384 well cell plate.
Day 4: Cell staining and imaging. Nuclear staining solution was prepared by adding 1 μl of 10 mg/mL Hoechst-33342 to every 1 ml culture media that will be added to cell plate at 20 μl/well. The final concentration of Hoechst-33342 to cells was about 2.5 μg/ml. Cell plates were incubated for >30 min at 37° C. before imaging. Cell plates were scanned with an ArrayScan automatic high content imaging system using a 10× objective lens, 4 fields/well collected. Three measurements were obtained 1) mean total phagocytosis spot intensity per cell, 2) total cell counts per well, and 3) mean average nuclear intensity per cell for cell health.
This 384-well plate high content imaging assay was developed to quantify phagocytosis and cell health simultaneously using either BV2 or HMC3 immortalized microglial cell lines or primary microglia isolated from mouse brain. Cells were cultured in DMEM GlutaMax media (ThermoFisher) containing 10% FBS and Pen-Strep in 37° C. 5% CO2 incubator. Day 1: Cells were plated (Corning Falcon 384 well Optilux Black and clear bottom plates for imaging) with BV2 at 400 cells/45 μl/well, HMC3 at 600 cells/45 μl/well, or primary at 2000 cell/45 μl/well. Day 2: Cells were treated with 10× serially diluted compounds in a dose range of 60 μM to 3 nM for 48 hrs at 37° C. Day 3: Cells were seeded with pHrodo-myelin (for total 20 hrs) 24 hrs after starting compound treatment. The pHrodo-myelin stocks were at 1 mg/ml (protein equivalent) stored in −20° C. or −80° C. freezer. Stocks were thawed and diluted with culture media into 10× seeding solution (50 μg/ml) and added 5 μl/well to 384 well cell plate. Day 4: Cell staining and imaging. Nuclear staining solution was prepared by adding 1 μl of 10 mg/mL Hoechst-33342 to every 1 ml culture media that will be added to cell plate at 20 μl/well. The final concentration of Hoechst-33342 to cells was about 2.5 μg/ml. Cell plates were incubated for >30 min at 37° C. before imaging. Cell plates were scanned with an ArrayScan automatic high content imaging system using a 10× objective lens, 4 fields/well collected. Three measurements were obtained 1) mean total phagocytosis spot intensity per cell, 2) total cell counts per well, and 3) mean average nuclear intensity per cell for cell health.

The test system of another data set is primary mouse microglia. Description: Phagocytosis in primary mouse microglia. To be noted: pHrodo-myelin. The format is cell-based. The protocol:
Activity of Compound 9 in primary mouse microglia. Cortical tissue from C57BL/6J neonatal mice (P0-P3) was homogenized in Dulbecco's Modified Eagle Medium (DMEM), filtered through 250 and 100 μm mesh, and cultured in Advanced DMEM/F12 supplemented with 10% fetal bovine serum, 1× GlutaMAX and 1× Penicillin/Streptomycin. At 21 days in vitro (DIV), the cultures were subjected to mild trypsinization using 0.083% Trypsin-EDTA in DMEM for 30 mins to detach an intact layer of astrocytes. The microglia attached to the bottom were used as described in pHrodo-myelin phagocytosis assay to measure phagocytosis and cell health. The activity of Compound 10 in primary mouse microglia was obtained in a similar manner to Compound 9. Cortical tissue from C57BL/6J neonatal mice (P0-P3) was homogenized in Dulbecco's Modified Eagle Medium (DMEM), filtered through 250 and 100 μm mesh, and cultured in Advanced DMEM/F12 supplemented with 10% fetal bovine serum, 1× GlutaMAX and 1× Penicillin/Streptomycin. At 21 days in vitro (DIV), the cultures were subjected to mild trypsinization using 0.083% Trypsin-EDTA in DMEM for 30 mins to detach an intact layer of astrocytes. The microglia attached to the bottom were used as described in Example 13 to measure myelin phagocytosis and cell health. The results are depicted in FIG. 3. Primary Mouse Microglia of compound 10 was obtained in a similar manner to compound 9. The results are depicted in FIG. 3.

Data set [1] can be described thus: Pharmacokinetics in C57BL/6J mice. The format is in vivo, mouse. To be noted: dosed orally at 100 mg/kg. How it is done:
Pharmacokinetics of Compound 9. Compound 9 was formulated at 5 mg/ml in HPMC (1%)/Tween 80 (0.25%)/purified water. Male C57BL/6J mice aged 8-12 weeks from The Jackson Laboratory were dosed (100 mg/kg, 20 ml/kg) via oral gavage. Plasma exposures at 0.5, 1, 2, 4, 6, 8, 12 hr and terminal at 24 hr were obtained. Brain exposures were obtained at terminal 4 and 24 hrs. The pharmacokinetics of Compound 10 was obtained in a similar manner to Compound 9. Compound was formulated in hydroxyethylcellulose (1%)/Tween 80 (0.25%)/antifoam (0.050%)/water (purified) at a concentration of 5 mg/ml. 100 mg/kg, 20 ml/kg was dosed via oral gavage. Plasma exposures at 0.25, 0.5, 1, 2, 8 hr and terminal at 24 hrs were obtained. Brain exposures were obtained at terminal 4 and 24 hrs. The results are depicted in FIG. 4. Pharmacokinetics of compound 10 in C57BL/6J Mice were obtained in a similar manner as compound 9. The results are depicted in FIG. 4.

pEC50: −log10 of the molar value.

Regarding `CC(C)(C)OC(=O)N1CCC(n2cc(-c3cncc(OCc4ccccc4)c3)cn2)CC1` [Compound 4, tert-butyl 4-(4-(5-(benzyloxy)pyridin-3-yl)-1H-pyrazol-1-yl)piperidine-1-carboxylate], the negative logarithm of the EC50 (pEC50) (as a rule, the EC50 on a negative log10 scale, so that one unit is a factor of ten) in the data set with BV2 cells was 5.49.

As for `Cl.Clc1ccc(COc2cncc(-c3cnn(C4CCNCC4)c3)c2)c(Cl)c1` [Compound 10, 3-((2,4-dichlorobenzyl)oxy)-5-(1-(piperidin-4-yl)-1H-pyrazol-4-yl)pyridine hydrochloride], the negative-log EC50 (pEC50) in the data set on BV2 cells was 5.76. For the same compound, in the data set with primary mouse microglia, the negative-log EC50 (pEC50) was 6.27 and the increased phagocytosis came to 1.5 fold. Moreover, in data set [1], the exposure in brain came to 6 µM and the exposure in plasma turned out to be 2 µM.

Take `CC(C)(C)OC(=O)N1CCC(n2cc(-c3cncc(OCc4ccccc4Cl)c3)cn2)CC1` [Compound 1, tert-butyl 4-(4-{5-[(2-chlorophenyl)methoxy]pyridin-3-yl}-1H-pyrazol-1-yl)piperidine-1-carboxylate]: in the data set with BV2 cells, the negative logarithm of the EC50 (pEC50) was 5.63.

As to `Cc1ccccc1COc1cncc(-c2cnn(C3CCN(C(=O)OC(C)(C)C)CC3)c2)c1` [Compound 3, tert-butyl 4-(4-(5-((2-methylbenzyl)oxy)pyridin-3-yl)-1H-pyrazol-1-yl)piperidine-1-carboxylate], the pEC50 in the data set with BV2 cells was 5.99.

`C[C@@H](Oc1cncc(-c2cnn(C3CCNCC3)c2)c1)c1ccc(Cl)cc1` [Compound 23, (R)-3-(1-(4-chlorophenyl)ethoxy)-5-(1-(piperidin-4-yl)-1H-pyrazol-4-yl)pyridine]: the pEC50 in the data set with BV2 cells is 5.59.

Turning to `CC(C)(C)OC(=O)N1CCC(n2cc(-c3cncc(OCc4ccc(Br)cc4)c3)cn2)CC1` [Compound 7, tert-butyl 4-(4-(5-((4-bromobenzyl)oxy)pyridin-3-yl)-1H-pyrazol-1-yl)piperidine-1-carboxylate], the pEC50 with BV2 cells was 6.12.

As for `Cl.Clc1ccccc1COc1cncc(-c2cnn(C3CCNCC3)c2)c1` [Compound 9, 3-((2-chlorobenzyl)oxy)-5-(1-(piperidin-4-yl)-1H-pyrazol-4-yl)pyridine hydrochloride], the negative-log EC50 (pEC50) with BV2 cells was 6.13. In the data set with primary mouse microglia, this compound had a negative-log EC50 (pEC50) of 5.89 and an increased phagocytosis of 1.8 fold. Further, in data set [1], the exposure in brain is 0.5 µM and the exposure in plasma was determined as 5 µM.

On to `C[C@H](Oc1cncc(-c2cnn(C3CCNCC3)c2)c1)c1ccccc1Cl` [Compound 21, (S)-3-(1-(2-chlorophenyl)ethoxy)-5-(1-(piperidin-4-yl)-1H-pyrazol-4-yl)pyridine], for which the negative logarithm of the EC50 (pEC50) in the data set with BV2 cells was 6.40.

Consider `CC(C)(C)CC(=O)N1CCC(n2cc(-c3cncc(OCc4ccccc4Cl)c3)cn2)CC1` [Compound 16, 1-(4-(4-(5-((2-chlorobenzyl)oxy)pyridin-3-yl)-1H-pyrazol-1-yl)piperidin-1-yl)-3,3-dimethylbutan-1-one], for which, in the data set on BV2 cells, the negative logarithm of the EC50 (pEC50) was 5.93.

Take `CC(C)(C)CCN1CCC(n2cc(-c3cncc(OCc4ccccc4Cl)c3)cn2)CC1` [Compound 15, 3-((2-chlorobenzyl)oxy)-5-(1-(1-(3,3-dimethylbutyl)piperidin-4-yl)-1H-pyrazol-4-yl)pyridine]: the pEC50 in the data set with BV2 cells was 5.65.

In the data set on BV2 cells, `CC(C)(C)OC(=O)N1CCC(n2cc(-c3cncc(OCc4ccccc4F)c3)cn2)CC1` [Compound 2, tert-butyl 4-(4-(5-((2-fluorobenzyl)oxy)pyridin-3-yl)-1H-pyrazol-1-yl)piperidine-1-carboxylate] gave a negative-log EC50 (pEC50) of 5.81.
